From paper PMC8395111 (International Journal of Molecular Sciences, 2021)
Like-named read-outs stand apart in the source and are kept apart here. Square brackets hold non-standard residues; d marks the D form. Peptide text beside a SMILES is read from it.

Tests used:
[1] = Tryptophan fluorescence and acrylamide quenching in buffer (solubility/aggregation); conditions: for λ em,max / KSV (Stern–Volmer constant): PBS, mean ± SD, three experiments; for λ em,max: Trp fluorescence, excitation 280 nm, room temperature; for KSV (Stern–Volmer constant): acrylamide 0.1, 0.4, 0.7 M
Procedure: (§5) Spectra of tryptophan fluorescence were measured at room temperature with a Cary Eclipse fluorescence spectrophotometer of Varian (Salt Lake City, UT, USA). The excitation wavelength was set to 280 nm, and the slid-width was 10 nm. The emission was recorded between 300 nm and 410 nm.
(§6) Quenching of Tryptophan was carried out in the presence and absence of phospholipid liposomes (lipid-to-peptide ratio 25:1) using 0.1, 0.4 and 0.7 M acrylamide. The data were analyzed according to the Stern–Volmer equation (Equation (2)):(2) F0/F=1+KSV×[Q] where F0 and F represent the fluorescence emission intensities in the absence and presence of the quencher molecule (Q), and KSV is the Stern–Volmer quenching constant, which is a quantitative measure for the accessibility of tryptophan to acrylamide [80].

[2] = Propidium iodide-uptake toxicity assay, NHDF; assay type: cell-based, human; conditions: human, normal human dermal fibroblasts (NHDF), PI-uptake, fibroblast growth medium (2% FBS)
Procedure: (§1) To determine peptide-induced cell death, cells were resuspended in respective media (see Section 2.2) and diluted to a concentration of 1 × 10^6 cells/mL. 100 µL Aliquots ([…]) for up to 8 h in the presence of propidium iodide PI (2 µL/10^5 cells of 50 µg/mL, Molecular Probes Inc., Eugene, OR, USA) at room temperature in black 96-well plates. PI-uptake was measured after 0, 1, 2, 4 and 8 h using the GloMax® Multi+ Detection System (Promega, Madison, WI, USA). Cytotoxicity was calculated from the percentage of PI-positive cells in media alone (P0) and in the presence of peptide (PX) (see Equation (3)). Triton-X-100 was used to determine 100% of PI-positive cells (P100). (3) %PI−uptake=100×(PX−P0)/(P100−P0)
(§2) Excitation and emission wavelengths were 536 nm and 617 nm, respectively. The cytotoxicity of the peptides was further investigated in the presence of different serum types and amounts, as well as in the presence of protease inhibition.

[3] = pH 7.4
Procedure: as §5, §6

[4] = system: glioblastoma cell line LN-229; assay type: cell-based; conditions: LN-229, PI-uptake
Procedure: (§3) To determine peptide-induced cell death, cells were resuspended in respective media (see Section 2.2) and diluted to a concentration of 1 × 10^6 cells/mL. 100 µL Aliquots (10^5 cells) were incubated with different peptide concentrations (5 µM to 100 µM) for up to 8 h in the presence of propidium iodide PI (2 µL/10^5 cells of 50 µg/mL, Molecular Probes Inc., Eugene, OR, USA) at room temperature in black 96-well plates. PI-uptake was measured after 0, 1, 2, 4 and 8 h using the GloMax® Multi+ Detection System (Promega, Madison, WI, USA). Cytotoxicity was calculated from the percentage of PI-positive cells in media alone (P0) and in the presence of peptide (PX) (see Equation (3)). Triton-X-100 was used to determine 100% of PI-positive cells (P100). (3) %PI−uptake=100×(PX−P0)/(P100−P0)
as §2

[5] = system: melanoma cell line SBcl-2; assay type: cell-based; conditions: SBcl-2, PI-uptake
Procedure: as §3, §2

[6] = system: glioblastoma cell line U-87 mg; assay type: cell-based; conditions: PI-uptake
Procedure: as §3, §2

[7] = Ex vitro stability study in human serum, SDS-PAGE; assay type: in vitro ADME; conditions: 50 µg peptide in 200 µL, 37 °C, Coomassie
Procedure: (§4) Peptide stability was tested in the presence of fetal bovine serum (FBS, Gibco®) and human serum (HS, Sigma-Aldrich, Deisenhofen, Germany). Therefore 50 µg of the peptide was mixed with 0 µL (0%), 4 µL (2%) and 20 µL (10%) pure FBS or HS and refilled with PBS buffer to a total volume of 200 µL and incubated for 1 day, 6 days and 7 days at 37 °C. Sample aliquots of 10 µL were taken before incubation (0 h) and after 1 h, 8 h, 24 h, 2 days and 7 days of incubation. The aliquots (10 µL) were immediately mixed with 10 µL 2 × loading sample buffer and stored at −20 °C. The collected samples of the stability studies were analyzed by SDS- polyacrylamide gel electrophoresis (BioRad, Mini-PROTEAN Tetra System). As a standard, the Ultra-low Range Molecular Weight Marker M3546 (Sigma-Aldrich, Deisenhofen, Germany) was used. Before use, the collected samples of the stability studies (10 µL aliquot + 10 µL 2 xLD), as well as the Ultra-Low Molecular Weight marker (ULMW), were brought to room temperature. A concentration series in the range of 0.5 µg, 1 µg and 2.5 µg peptide per 10 µL sample volume was prepared in PBS for each peptide. In total, 10 µL of the resulting samples (0.5 µg, 1 µg and 2.5 µg peptide) were mixed with 10 µL 2 × loading buffer. Afterwards, all samples (collected samples, ULMW, concentration series) were incubated at 95 °C for 10 min.

[8] = Ex vitro stability study in fetal bovine serum, SDS-PAGE; assay type: in vitro ADME; conditions: 50 µg peptide in 200 µL, 37 °C, Coomassie, at least two measurements
Procedure: as §4

melanoma cell line A375 = assay type: cell-based; conditions: A375, PI-uptake, 10% FBS
Procedure: as §3, §2
The standard growth medium used for cell line A375 was DMEM containing 10% fetal bovine serum (FBS). Before the study of peptide-induced cytotoxicity, cells were diluted to 10^5 cells/100 µL in DMEM containing 2% FBS. […]

[9] = system: normal human dermal fibroblasts NHDF; test: Propidium iodide-uptake toxicity assay, NHDF; assay type: cell-based; conditions: 2–20 µM peptide, 8 h
Procedure: as §1, §2

[10] = not given; remark: listed apart in the source
[11] = cited from earlier work
Excerpt: The blood-brain barrier (BBB) is formed by a tightly sealed monolayer of endothelial cells, and the tight junctions between the endothelial cells are responsible for the barrier function of the BBB. Various drugs are discovered to treat central nervous system (CNS) disorders but fail to enter the market because of their inability to cross the BBB [19]. Vemurafenib, an antitumoral agent that is capable to pass the BBB, was approved in 2011. It inhibits the BRAF-serine/threonine-kinase and leads to a median survival of 13.6 months compared to 9.7 months upon treatment with dacarbazine [ ...

[12] = 2% HS in PBS, 7 days, at least two measurements
[13] = 2% FBS in PBS, up to 7 days (9D-RDP215 main series 2 days, repeat 7 days)

Compound | λ em,max [1] | KSV (Stern–Volmer constant) [1] | CC50 at 4 h [2] | CC50 at 8 h [2] | LC50 after 8 h [4] | LC50 after 8 h [5] | LC50 after 8 h [6] | peptide degradation [7, 12] | peptide degradation [8, 13] | peptide degradation ([8]; 10% FBS in PBS, up to 7 days) | median survival [11] | further results
CC[C@H](C)[C@H](NC(=O)[C@@H](CCCNC(=N)N)NC(=O)[C@H](Cc1c[nH]c2ccccc12)NC(=O)[C@H](N)Cc1ccccc1)C(=O)N[C@H](CCCNC(=N)N)C(=O)N[C@H](C(=O)N[C@H](CCCNC(=N)N)C(=O)N[C@H](CCCNC(=N)N)C(=O)N1CCC[C@H]1C(=O)N[C@H](CCCNC(=N)N)C(=O)N[C@H](CCCNC(=N)N)C(=O)N[C@H](C(=O)N[C@H](CCCNC(=N)N)C(=O)N[C@H](C(=O)N[C@H](CCCNC(=N)N)C(=O)N[C@@H](Cc1c[nH]c2ccccc12)C(=O)N[C@H](Cc1ccccc1)C(N)=O)[C@@H](C)CC)[C@@H](C)CC)[C@@H](C)CC [9D-RDP215, 9D-R-DIM-P-LF11-215] (H-[dF]W[dR]I[dR]I[dR][dR]P[dR][dR]I[dR]I[dR]W[dF]-NH2) | 354 ± 0.5 nm | 27.0 ± 2.8 M⁻¹ | 58.8 ± 4.2 µM | 18.9 ± 1 µM | 1.4 ± 5.1 µM | 1.8 ± 0.1 µM | 1.6 ± 0.1 µM | does not show any peptide degradation | no degradation | no degradation |  | solubility / aggregation in buffer [3]: completely dissolved and not aggregated; peptide degradation ([7]; 10% HS in PBS, up to 7 days, at least two measurements): does not show any peptide degradation
CC[C@H](C)[C@H](NC(=O)[C@H](CCCNC(=N)N)NC(=O)[C@@H](NC(=O)[C@H](CCCNC(=N)N)NC(=O)[C@H](CCCNC(=N)N)NC(=O)[C@@H]1CCCN1C(=O)[C@H](CCCNC(=N)N)NC(=O)[C@H](CCCNC(=N)N)NC(=O)[C@@H](NC(=O)[C@H](CCCNC(=N)N)NC(=O)[C@@H](NC(=O)[C@H](CCCNC(=N)N)NC(=O)[C@H](Cc1c[nH]c2ccccc12)NC(=O)[C@@H](N)Cc1ccccc1)[C@@H](C)CC)[C@@H](C)CC)[C@@H](C)CC)C(=O)N[C@@H](CCCNC(=N)N)C(=O)N[C@@H](Cc1c[nH]c2ccccc12)C(=O)N[C@@H](Cc1ccccc1)C(N)=O [RDP215, R-DIM-P-LF11-215] (H-FWRIRIRRPRRIRIRWF-NH2) | 356 ± 0 nm | 24.7 ± 5.4 M⁻¹ | 99.1 ± 0.1 µM | 68.2 ± 1.8 µM | 1.7 ± 0.1 µM | 4.7 ± 0.4 µM | 3.0 ± 0.1 µM | completely degraded | No degradation | No degradation |  | LC50 after 4 h (melanoma cell line A375; 4 h): 17.1 ± 1.5 µM; LC50 after 8 h (melanoma cell line A375; 8 h): 3.8 ± 0.3 µM; solubility / aggregation in buffer ([1]; PBS pH 7.4, concluded from Trp emission maximum and KSV): completely dissolved and not aggregated; harm on NHDF cells (PI-uptake) [9]: no harm; peptide degradation ([7]; 2% HS in PBS, 1 h to 2 days): ongoing peptide degradation; peptide degradation ([7]; 10% HS in PBS, 24 h, at least two measurements): completely degraded; λem,max with DPPS: 336 nm; decrease of KSV vs buffer [10]: 20.7 M⁻¹
CCCS(=O)(=O)Nc1ccc(F)c(C(=O)c2c[nH]c3ncc(-c4ccc(Cl)cc4)cc23)c1F [Vemurafenib, vemurafenib] |  |  |  |  |  |  |  |  |  |  | 13.6 months | 
CN(C)/N=N/c1[nH]cnc1C(N)=O [dacarbazine] |  |  |  |  |  |  |  |  |  |  | 9.7 months | 
